Test results: patent US6664088B2, “Production of vanillin” (Plant Bioscience Limited, priority 1996, dated 2003)
Like-named read-outs stand apart in the source and are kept apart here.

What was measured:
[1] = biological target: T1, trans-feruloyl SCoA hydratase/aldol cleavage enzyme (Pseudomonas fluorescens, UniProt O69762); test: trans-feruloyl SCoA hydratase/aldol cleavage enzyme activity, reaction products by HPLC; type: biochemical; conditions: 30° C., 0.4 mM substrate, 2.8 μg enzyme partially purified by Mono-Q and Mono-P
T1 construct: Purification from cells of Ps. fluorescens biovar V, strain AN103, was; endogenous in cells; host or cells: Ps. fluorescens biovar; V strain AN103 grown on trans-ferulate (crude extract, then Mono Q, Mono P, PhenylSuperose); also crude extract of E. coli JM109(DE3) with the gene in pSP72
T1 sequence (O69762 2-276): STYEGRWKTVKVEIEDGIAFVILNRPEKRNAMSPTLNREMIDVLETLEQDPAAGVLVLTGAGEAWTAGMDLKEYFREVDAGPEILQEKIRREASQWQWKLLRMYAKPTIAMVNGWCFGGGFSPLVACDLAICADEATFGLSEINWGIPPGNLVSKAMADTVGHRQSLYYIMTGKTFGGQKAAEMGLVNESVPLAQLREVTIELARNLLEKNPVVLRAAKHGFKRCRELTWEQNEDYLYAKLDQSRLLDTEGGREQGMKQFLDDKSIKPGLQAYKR
Procedure: At each stage of purification, active fractions were detected by a micro-adaptation of the assay with HMPHP SCoA described above (Example 2); reactions were performed in 100 μl of reaction mixture for ca. 4 min at room temperature in microtitre wells and absorbance was then measured in an MR 5000 microtitre plate reader (Dynatech, Guernsey, Channel Islands), equipped with a 340 nm filter. The activity of the pooled fractions was measured using HPLC to determine the reaction products of both HMPHP SCoA, (0.4 mM) and trans-feruloyl SCoA (0.28 mM) as substrates. […] The proportionality of the reactions with time and with quantity of enzyme was established in preliminary determinations.
E. coli cells were grown at 37° C. for 3 h in 50 ml of L medium, containing ampicillin (50 μg/ml) with and without induction by IPTG. Extracts were prepared as described above in Example 2 for Ps. fluorescens AN103, but without centrifugation. The crude extract was used for assay. Enzyme activity with both HMPHP SCoA and trans-feruloyl ScoA was determined as described above in Example 4 using HPLC to determine the reaction products. […] There was no activity with either trans-feruloyl SCoA or HMPHP SCoA in extracts of an unmanipulated E. coli strain, whether induced or not. In the manipulated strain E. coli 1039 that expresses the Pseudomonas gene the specific activity was slightly lower in the exLract made following induction than in that made from uninduced bacteria. […] It was not possible to detect expression of the 31 kD protein visually on Coomassie-stained, one-dimensional SDS gels because of its co-migration with the strongly expressed β-lactamase encoded by the vector ampicillin resistance marker.

[2] = test system: enzyme activities I, II and III from Ps. fluorescens biovar V, strain AN103; test: Use of cinnamates as substrates by enzyme activities I, II and III; type: biochemical, Pseudomonas fluorescens; conditions: AN103 enzymes
[3] = test system: Ps. fluorescens biovar. V, strain AN103; test: Relative growth of strain AN103 on a range of carbon substrates (absorbance at 600 nm); type: cell-based, Pseudomonas fluorescens; conditions: for activity at 10000 µM: read-out: Relative Growth (%)
Procedure: KH2PO4, 5 g; […] FeSO4, 0.5 mg; CaCl2, 0.5 mg; MnCl2.5H2O, 5 mg; (NH4)6Mo2O7.4H2O, 1.1 mg; MgSO4, 5 mg; EDTA, 50 mg; […] The pH was 7.0. Carbon sources were included as indicated. […] Growth was monitored by measuring absorbance at 550 or 600 nm. [table]

[4] = test system: cell-free extract of strain AN103; test: Incubation of CoASH thioesters with cell-free extract; type: biochemical, Pseudomonas fluorescens
Procedure: (§1) Cell-free extracts were routinely incubated at 30° C. and pH 7.5 in a reaction mixture (1 ml) containing 90 mM Tris HCl buffer and 2.5 mM MgCl2, together with (as appropriate) 0.5 mM trans-ferulic acid, 0.2 mM CoASH (Li salt) and 2.5 mM ATP. This complete reaction mixture constituted an assay for trans-ferulate: CoASH ligase, where the initial increase in absorbance at 345 nm was monitored against a blank reaction mixture from which CoASH was omitted. Incubations with HMPHP SCoA (generally 0.4 mM) were performed similarly, but with the omission of trans-ferulic acid, CoASH and ATP.
Metabolites of trans-ferulic acid, including the CoASH thioesters, were analysed and quantitated by HPLC using a Lichrosorb RP-18 column (20 cm×4.6 mm; Capital HPLC, Broxburn, West Lothian, UK) with a multiphasic gradient; solvent “A” was 20 mM NaOAc, adjusted to pH 6.0 and solvent“B” was MeOH; the flow rate was 1.2 ml/min; the proportion of solvent “B” rose linearly from 0% at 0 min to 10% at 15 min and thence to 50% at 40 min and 70% at 45 min, finally decreasing to 0% at 50 min. Detection was with a Spectra Focus detector (Thermo Separation Products, Stone, Staffs. UK), which permitted u/v spectral analysis of each eluting component.

[5] = biological target: T2, Vanillin: NAD+ oxidoreductase (Pseudomonas fluorescens, UniProt O69763); test: Vanillin:NAD+ oxidoreductase assay, decrease in absorbance at 340 nm; type: biochemical; conditions: gene expressed in E. coli strain DH5 from pUC18
T2 construct: endogenous in cells; host or cells: Ps. fluorescens AN103 / van 1 / van 10 cell-free extracts; also E. coli DH5 carrying pUC18 with the full-length ORF
T2 sequence (O69763 whole entry): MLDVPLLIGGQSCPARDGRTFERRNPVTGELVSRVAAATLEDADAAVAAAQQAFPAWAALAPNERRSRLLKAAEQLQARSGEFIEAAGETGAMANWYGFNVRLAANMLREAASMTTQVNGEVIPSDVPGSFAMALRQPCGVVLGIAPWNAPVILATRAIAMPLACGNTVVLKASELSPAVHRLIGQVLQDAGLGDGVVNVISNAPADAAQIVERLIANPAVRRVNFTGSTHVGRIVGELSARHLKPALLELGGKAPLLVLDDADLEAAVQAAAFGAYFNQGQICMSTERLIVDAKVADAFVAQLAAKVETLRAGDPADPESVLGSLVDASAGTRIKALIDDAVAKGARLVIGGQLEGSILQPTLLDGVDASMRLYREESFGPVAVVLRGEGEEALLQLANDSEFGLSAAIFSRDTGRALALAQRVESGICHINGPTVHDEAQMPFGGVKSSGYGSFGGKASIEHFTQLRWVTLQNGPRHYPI
Procedure: Vanillin: NAD^+ oxidoreductase was assayed at 30° C. and pH 7.0 by monitoring the initial decrease in absorbance at 340 nm against a blank cuvette from which NAD^+ was omitted. Because of the similarity in extinction coefficient at 340 nm for vanillin and for NADH, the sensitivity of the assay was increased by catalysing the regeneration of NADH to NAD^+ by providing lactate dehydrogenase and pyruvate. Reaction mixtures contained, in 1 ml volume, 75 mM KPi buffer, pH 7.0, 0.125 mM vanillin, 1.2 mM Na pyruvate, lactate dehydrogenase (rabbit muscle), 1.1 U and NAD^+, 0.5 mM.
In order to confirm the function of this gene, expression was determined in E. coli strain DH5, which contained the vector pUC18 into which the full-length open reading frame had been inserted such that expression was from the lac promoter on the vector. Vanillin: NAD^+ oxidoreductase activity was confirmed and was absent from a control strain bearing the unmodified pUC 18 vector. Using the enzyme assay described in Example 2, activity with vanillin as substrate was determined as 3.0 nkat/mg of protein; activity with salicylaldehyde was 2.8 nkat/mg.

[6] = test system: trans-ferulate: CoASH ligase; test: trans-ferulate:CoASH ligase assay, initial increase in absorbance at 345 nm; type: biochemical, Pseudomonas fluorescens; conditions: crude extracts of Ps. fluorescens AN103; initial rate at absorbance maximum of the SCoA thioester
Procedure: as §1

[7] = substrate 10 mM on MM Medium, 48 h at 25° C., absorbance at 600 nm
[8] = Pseudomonas fluorescens, substrate 10 mM on MM Medium, 48 h at 25° C., absorbance at 600 nm

For `CC(C)(COP(=O)(O)OP(=O)(O)OC[C@H]1O[C@@H](n2cnc3c(N)ncnc32)[C@H](O)[C@@H]1OP(=O)(O)O)[C@@H](O)C(=O)NCCC(=O)NCCSC(=O)/C=C/c1ccc(O)c(O)c1` (relative stereo) [Caffeoyl SCoA, trans-caffeoyl SCoA], the “Activity, utilisation of trans-p-hydroxycinnamoyl SCoA thioester” value [1] was 0.36 nkat/mg of protein.
`COc1cc(C=CC(=O)SCCNC(=O)CCNC(=O)[C@H](O)C(C)(C)COP(=O)(O)OP(=O)(O)OC[C@H]2O[C@@H](n3cnc4c(N)ncnc43)[C@H](O)[C@@H]2OP(=O)(O)O)ccc1O` (relative stereo) [Feruloyl SCoA, trans-feruloyl SCoA] was tested, and the “Activity, utilisation of trans-p-hydroxycinnamoyl SCoA thioester” value [1] was 0.60 nkat/mg of protein.
With `CC(C)(COP(=O)(O)OP(=O)(O)OC[C@H]1O[C@@H](n2cnc3c(N)ncnc32)[C@H](O)[C@@H]1OP(=O)(O)O)[C@@H](O)C(=O)NCCC(=O)NCCSC(=O)/C=C/c1ccc(O)cc1` (relative stereo) [p-Coumaroyl SCoA, trans-4-coumaroyl SCoA] the “Activity, utilisation of trans-p-hydroxycinnamoyl SCoA thioester” value [1] was 0.72 nkat/mg of protein.
For `O=C(O)/C=C/c1ccc2c(c1)OCO2` [3,4-methylenedioxy-trans-cinnamate], the “Use as substrate by enzyme activities I, II and III” value (“Use as substrate” for short) [2] was “poor substrates”.
With `CC(=O)O` [Acetate] the “Relative Growth (%)” value [3, 7] was 47%.
In the case of `O=C(O)/C=C/c1ccc(O)c(O)c1` [Caffeic acid, 3,4-dihydroxy-trans-cinnamate], the activity at 10000 µM [3, 8] is reported as 79%.
`O=C(O)C=Cc1ccccc1` [Cinnamic acid] was tested, and the “Use as substrate” value [2] was “poor substrates” and the activity at 10000 µM [3, 8] was 0%.
`COc1cc(/C=C/C(=O)O)ccc1O` [Ferulic acid, 4-hydroxy-3-methoxy-trans-cinnamate] gave an activity at 10000 µM [3, 8] of 100%.
With `COc1cc(C(O)CC(=O)SCCNC(=O)CCNC(=O)[C@H](O)C(C)(C)COP(=O)(O)OP(=O)(O)OC[C@H]2O[C@@H](n3cnc4c(N)ncnc43)[C@H](O)[C@@H]2OP(=O)(O)O)ccc1O` (stereo partly drawn) [HMPHP SCoA, 4-hydroxy-3-methoxyphenyl-β-hydroxypropionyl SCoA] the “Metabolism by cell-free extract” value ([4]; incubated with cell-free extract, absence of NAD+) was “converted rapidly to acetyl SCoA and vanillin, in equimolar proportions”.
With `CO` [Methanol] the activity at 10000 µM ([3]; Pseudomonas fluorescens, 48 h) was 0%.
Work on `O=C(O)c1ccc(O)c(O)c1` [Protocatechuic acid] yielded an activity at 10000 µM ([3]; Pseudomonas fluorescens, 48 h) of 77%.
For `O=Cc1ccc(O)c(O)c1` [Protocatechuic aldehyde], the “Relative Growth (%)” value [3, 7] was 0%.
Compound `COc1cc(/C=C/C(=O)O)cc(OC)c1O` [Sinapic acid] has an activity at 10000 µM [3, 8] of 0%.
With `COc1cc(C(=O)O)ccc1O` [Vanillic acid] the activity at 10000 µM [3, 8] was 140%.
In the case of `COc1cc(C=O)ccc1O` [Vanillin, 4-hydroxy-3-methoxybenzaldehyde], the activity at 1000 µM ([3]; Pseudomonas fluorescens, vanillin 1 mM on MM Medium, 48 h at 25° C., absorbance at 600 nm) is reported as less than 100%, the “Effect on growth of strain AN103” value ([3]; concentrations higher than the low concentrations (<1 mM)) is reported as “growth-inhibitory” and the “Activity as substrate of vanillin:NAD+ oxidoreductase” value [5] is reported as 3.0 nkat/mg of protein.
`O=C(O)/C=C/c1ccc(O)cc1` [p-Coumarate, 4-hydroxy-trans-cinnamate] was tested, and the “Activity, formation of CoASH thioester” value [6] was 0.37 nkat/mg protein and the “Use as substrate” value [2] was “reasonable efficiency”.
In the case of `O=Cc1ccccc1O` [salicylaldehyde], the “Activity as substrate of vanillin:NAD+ oxidoreductase” value [5] is reported as 2.8 nkat/mg.
With `COc1cc(C(=O)SCCNC(=O)CCNC(=O)[C@H](O)C(C)(C)COP(=O)(O)OP(=O)(O)OC[C@H]2O[C@@H](n3cnc4c(N)ncnc43)[C@H](O)[C@@H]2OP(=O)(O)O)ccc1O` [vanilloyl SCoA, 4hydroxy-3-methoxybenzoyl SCoA] the “Metabolism to vanillin by cell-free extracts” value ([4]; in the presence of NADH) was “not to be metabolised to vanillin”.
